Assays:
[1] = system: 3T3-HER2 cells (c-erbB-2 expressing); assay: Transfection of 3T3-HER2 cells with pXL3031 luciferase plasmid; format: cell-based; conditions: for RLU/μg of cell proteins: 10% serum, mean of three measures
Experimental: (§1) Transfections were done using C6.5-H1, C6ML3-9 sFv′-H1, C6ML3-9 sFv′-P1 (comprising C6ML3-9 coupled to human protamine P1 peptide) and C6ML3-9 sFv′-salmon protamine (C6ML3-9-SP). Conjugates were mixed in […] with pXL3031 (pCOR Luc^+) reporter plasmid at different ratios and, after a 10 minute incubation, used to transfect c-erbB-2 expressing (3T3-HER2) or non-expressing (3T3) cell lines. Transfection were performed in the presence of 10% fetal calf serum (FCS) for 3T3-HER2, or 10% calf serum (CS) for 3T3. After 24 hours of incubation, cells were washed twice with PBS and lysed with 200 μl of cell culture lysis reagent (Promega). Luciferase expression was quantified using a luciferase assay kit (Promega) and a Lumat LB9501 luminometer (EG and G). Light emission (RLU) was normalized to the protein concentration of each sample, measured using the Pierce BCA assay. Conditions of transfection are summarized below for each experiment.
(§2) All transfections were done in the presence of 10% serum. Best transfection conditions are indicated for each compound. All complexes with sFv′ conjugates were formed in 20 mM NaCl, and all complexes with RPR120535 were formed in 20 mM NaHCO3150 mM NaCl. Values correspond to the mean of three different measures of the same assay.

[2] = system: 3T3 cells (c-erbB-2 non-expressing); assay: Transfection of 3T3 cells with pXL3031 luciferase plasmid; format: cell-based; conditions: 10% serum, mean of three measures
Experimental: as §1, §2

SK-OV-3 cells [3] = assay: Luciferase reporter gene delivery to erbB-2 positive cells; format: cell-based, human
Experimental: Gene delivery experiments were carried out with the anti-erbB-2 sFv′-[salmon protamine]-DNA complex (C6.5 sFv′-SP-DNA or C6ML3-9 sFv′-SP-DNA). The reporter DNA plasmid was the pGL3-control from Promega, which encodes the luciferase gene under control of the SV40 early promoter and enhancers. The erbB-2 positive cell line used in the study was SK-OV-3, a human ovarian cancer cell line. 200 ng of pGL3 reporter plasmid DNA was incubated with increasing amounts of either the sFv′-[salmon protamine] conjugates (sFv′-SP), or the sFv′ mixed with salmon protamine (SP) alone as described. Formation of the protein-DNA complex was confirmed by gel mobility shift analysis (data not shown). The mixture of protein and DNA were then incubated with SK-OV-3 cells in the absence or presence of 100 μM chloroquine. The protein-DNA mixture was removed from the cell culture after a 20 hour incubation. Cells were harvested for luciferase assays at about 40 hours post-incubation using a Dynex MLX Luminometer. The experiment data presented are an averaged data from quadruplet samples of a typical experiment.

MCF-7 cells = assay: Luciferase reporter gene delivery to erbB-2 negative control cells; format: cell-based; conditions: FIG. 19
[4] = system: plasmid DNA (pGL-control or pXL3031); assay: Gel mobility shift analysis of complex formation with plasmid DNA; format: binding; conditions: 5.8 pmole (360 ng) conjugate; FIG. 18
Experimental: The ability of the anti-erbB-2 C6ML3-9 sFv′-salmone protamine (SP) conjugates to complex with plasmid DNA was tested by a gel mobility shift analysis.
The DNA was added last, and the mixture incubated on ice for 1 to 1.5 hour (in the case of kinetics studies, incubation time was from 5 minutes to 60 minutes as indicated). 2 μl of loading buffer (50% glycerol in 1×TE with dye) was added to the 20 μl reaction. The reaction was electrophoresed on 0.8% agarose gel in 1×TAE, 150 V for about an hour at room temperature and stained with EtBr overnight.

SK-OV-3 cells [5] = assay: pGeneGrip Rhodamine/GFP plasmid delivery, fluorescent microscopy, erbB-2 positive cells; format: cell-based, human; conditions: SK-OV-3, at 48 hours
Source text: pGeneGrip Rhodamine/GFP plasmid (Gene Therapy Systems) was used as another reporter plasmid for studying C6.5 sFv′-SP and C6ML3-9 sFv′-SP-mediated gene delivery. In this case, plasmid DNA encoding green fluorescent protein (GFP) was labeled with rhodamine, which allows one to follow internalization of the plasmid DNA as well as the expression of GFP. This reporter facilitated evaluation of the gene delivery efficiency at both DNA and protein expression levels. […] SK-OV-3 and MCF-7 cells were incubated with the protein/DNA complexes and fixed at 6, 24, 48, and 72 hours post-incubation for fluorescent microscopy. FIG. 21 represents the data from the 48 hour time point. […] The rhodamine labeled DNA could be seen inside of SK-OV-3 cells at 24 hours (data not shown). However, the GFP gene expression, was very low, about 1-2% cells being GFP positive in the case of C6ML3-9 sFv′-SP-mediated delivery at 48 hours. It should be noted that, although low, GFP expression level still correlates with the amount of DNA inside of the cells (FIG. 21, compare C6.5 sFv′-SP-DNA with that C6ML3-9 sFv′-SP-DNA). […] The low expression of GFP may be caused by the difficulty of plasmid DNA either escaping from the endosomes or reaching the nucleus.

[6] = 3T3-HER2, 7 μg/μg of DNA, no chloroquine

For `CCCCCCCCCCCCCCCCCCN(CCCCCCCCCCCCCCCCCC)C(=O)CNC(=O)CNCCCNCCCCNCCCN` [RPR120535, reference compound], the “RLU/μg of cell proteins” value ([1]; 3T3-HER2, 6 nmoles/μg of DNA, no chloroquine) was 2980000 RLU/μg of cell proteins and the “RLU/μg of cell proteins” value ([2]; 6 nmoles/μg of DNA, no chloroquine) was 26100000 RLU/μg of cell proteins.

In the case of “C6ML3-9 sFv′-H1: C6ML3-9 sFv′ reacted with maleimide-H1 peptide (residues 166 to 192 of human histone H1)”, the “RLU/μg of cell proteins” value [1, 6] is reported as 27400 (±6030) RLU/μg of cell proteins, the “increase in transfection efficiency” value ([1]; 3T3-HER2, increasing conjugate to DNA mass ratio from 4 to 10, FIG. 26) is reported as 10 fold and the “transfection activity on addition of free C6ML3-9 sFv′ or C6ML3-9 sFv′-H1 complexed to pBks plasmid” value ([1]; competition, specificity of gene transfer, FIG. 25) is reported as “could be reduced”. The “RLU/μg of cell proteins” value ([2]; 7 μg/μg of DNA, no chloroquine) was 0 (±0) RLU/μg of cell proteins.

In the case of “C6ML3-9 sFv′-P1: C6ML3-9 coupled to human protamine P1 peptide (residues 11 to 28)”, the “RLU/μg of cell proteins” value ([1]; 3T3-HER2, 6 μg/μg of DNA, 150 μM chloroquine) is reported as 10024 (±3757) RLU/μg of cell proteins and the “RLU/μg of cell proteins” value ([2]; 6 μg/μg of DNA, 150 μM chloroquine) is reported as 9 (±15) RLU/μg of cell proteins.

For “C6ML3-9 sFv′-SP: C6ML3-9 sFv′ coupled via Sulfo-SMCC at its C-terminal sulfhydryl to salmon protamine”, the “luciferase gene delivery to SK-OV-3 cells” value (SK-OV-3 cells [3]; 200 ng pGL3-control plasmid, 20 hour incubation, luciferase assay about 40 hours post-incubation, FIG. 19) was “delivered luciferase reporter plasmids into SK-OV-3 cells”, the “chloroquine dependence of luciferase gene delivery to SK-OV-3 cells” value (SK-OV-3 cells [3]; absence or presence of 100 μM chloroquine, FIG. 20) was “chloroquine-dependent” and the “luciferase gene delivery to SK-OV-3 cells after pre-incubating the cells with free C6ML3-9 sFv′” value (SK-OV-3 cells [3]; competition, data not shown) was “could be competed away”. For the same molecule, the “RLU/μg of cell proteins” value ([1]; 3T3-HER2, 4 μg/μg of DNA, 200 μM chloroquine) was 220000 (±20000) RLU/μg of cell proteins, the “luciferase activity in MCF-7 cells (erbB-2 negative control)” value (MCF-7 cells) was “minimal luciferase activity” and the “RLU/μg of cell proteins” value ([2]; 4 μg/μg of DNA, 200 μM chloroquine) was 1080 (±715) RLU/μg of cell proteins. For the same molecule, the “time in which the conjugate-DNA complex could form” value [4] was 5 min and the “cells being GFP positive (GFP gene expression)” value (SK-OV-3 cells [5]) was 1-2%.

B1: C6.5-H1: C6.5 sFv′ conjugated to the human histone H1 peptide (conjugate)
scFv: QVQLLQSGAELKKPGESLKISCKGSGYSFTSYWIAWVRQMPGKGLEYMGLIYPGDSDTKYSPSFQGQVTISVDKSVSTAYLQWSSLKPSDSAVYFCARHDVGYCSSSNCAKWPEYFQHWGQGTLVTVSSGGGGSGGGGSGGGGSQSVLTQPPSVSAAPGQKVTISCSGSSSNIGNNYVSWYQQLPGTAPKLLIYGHTNRPAGVPDRFSGSKSGTSASLAISGFRSEDEADYYCAAWDDSLSGWVFGGGTKLTVLGHHHHHHGGGGC
peptide: AKKAKSPKKAKAAKPKKAPKSPAKAK
For B1, the “RLU/μg of cell proteins” value [1, 6] was 659 (±240) RLU/μg of cell proteins and the “RLU/μg of cell proteins” value ([2]; 7 μg/μg of DNA, no chloroquine) was 6 (±7) RLU/μg of cell proteins.
